26 compounds from patent US11267824B2, “Inhibitors of indoleamine 2,3-dioxygenase and/or tryptophan 2,3-dioxygenase” (IDORSIA PHARMACEUTICALS LTD, priority 2017, dated 2022) can be followed below.

For test [1], the target named is Recombinant full-length human IDO1 (Homo sapiens (Human), UniProt P14902). The experiment in a line: IDO1 enzymatic assay (IDO inhibitory activity). To be noted: 2 nM enzyme, 5 μM L-tryptophan, pH6.5, 30 min pre-incubation, NFK quantified by LCMS; mean values if measured multiple times; read-out: hIDO activity (IC50 in nM). The format is biochemical. As for the experimental part: 1) Testing Compounds for IDO Inhibitory Activity in an IDO1 Enzymatic Assay:
Recombinant full-length human IDO1 with a N-terminal hexahistidine tag expressed in E. coli and purified to homogeneity is incubated at a final concentration of 2 nM in assay buffer consisting of 37.5 mM phosphate buffer at pH6.5 supplemented with 10 mM sodium L-ascorbate, 0.45 μM methylene blue, 50 U/ml catalase, 0.01% BSA, and 0.01% Tween 20 (protocol modified from Seegers et al, JBS 2014). Example compounds are serially diluted in DMSO, further diluted in phosphate buffer, and added to the enzyme at final concentrations ranging from 10 μM to 0.5 nM. The final DMSO concentration is 0.6%. Following a pre-incubation of 30 minutes at RT, the reaction is started by the addition of L-tryptophan at a final concentration of 5 μM in assay buffer. After 30 minutes of incubation at RT, 3 μL of the reaction mixture are transferred to a 384 deep well plate containing 25 μL of deionized water. 100 μl of 200 nM L-Tryptophan-(indole-d5) in cold 100% methanol are added followed by a 10 minutes centrifugation at 4,000 rpm at 4° C. An additional 75 μL of deionized water are then added and followed by a 10 minutes centrifugation at 4,000 rpm at 4° C. The product of the reaction N′-Formylkynurenine (NFK) is quantified by LCMS and normalized to the L-Tryptophan-(indole-d5) signal. Samples with 0.6% DMSO (0% effect) and a TDO/IDO inhibitor (100% effect) are used as control samples to set the parameters for the non-linear regression necessary for the determination of the half-maximal inhibitory concentration (IC50) for each compound. For each compound concentration the percentage of activity compared to 0% and 100% effect is calculated as average ±STDEV (each concentration measured in duplicate). IC50 values and curves are generated with XLfit software (IDBS) using Dose-Response One Site model 203 (four parameter logistic curve model). When compounds are measured multiple times, mean values are given.

Test [2] concerns the target Recombinant human TDO comprising amino acids 19-407 (Homo sapiens (Human), UniProt P48775). The experiment in a line: TDO2 enzymatic assay (TDO inhibitory activity). It is filed as biochemical. To be noted: 15 nM enzyme, 200 μM L-tryptophan, pH7, 30 min pre-incubation, NFK quantified by LCMS; mean values if measured multiple times; read-out: hTDO activity (IC50 in nM). Here is the method:
2) Testing Compounds for TDO Inhibitory Activity in a TDO2 Enzymatic Assay:
Recombinant human TDO comprising amino acids 19-407 with a N-terminal hexahistidine tag expressed in E. coli and purified to homogeneity is incubated at a final concentration of 15 nM in assay buffer consisting of 75 mM phosphate buffer at pH7 supplemented with 100 μM ascorbic acid, 50 U/ml Catalase, 0.01% BSA, and 0.01% Tween 20 (protocol modified from Seegers et al, JBS 2014). Example compounds are serially diluted in DMSO, further diluted in phosphate buffer, and added to the reaction mixture at final concentrations ranging from 10 μM to 0.5 nM. The final DMSO concentration is 0.6%. Following a pre-incubation of 30 minutes at RT, the reaction is started by the addition of L-tryptophan at a final concentration of 200 μM in assay buffer. After 30 minutes of incubation at RT, 3 μL of the reaction mixture are transferred to a 384 deep well plate containing 25 μL of deionized water. 100 μl of 200 nM L-Tryptophan-(indole-d5) in cold 100% methanol are added followed by a 10 minutes centrifugation at 4,000 rpm at 4° C. An additional 75 μL of deionized water are then added and followed by a 10 minutes centrifugation at 4,000 rpm at 4° C. The product of the reaction N′-Formylkynurenine (NFK) is quantified by LCMS and normalized to the L-Tryptophan-(indole-d5) signal. Samples with 0.6% DMSO (0% effect) and a TDO/IDO inhibitor (100% effect) are used as control samples to set the parameters for the non-linear regression necessary for the determination of the half-maximal inhibitory concentration (IC50) for each compound. For each compound concentration the percentage of activity compared to 0% and 100% effect is calculated as average±STDEV (each concentration measured in duplicate). IC50 values and curves are generated with XLfit software (IDBS) using Dose-Response One Site model 203 (four parameter logistic curve model). When compounds are measured multiple times, mean values are given.

Some results are limits rather than exact numbers.

Chain of Recombinant human TDO comprising amino acids 19-407 (P48775 19-406 limits assumed): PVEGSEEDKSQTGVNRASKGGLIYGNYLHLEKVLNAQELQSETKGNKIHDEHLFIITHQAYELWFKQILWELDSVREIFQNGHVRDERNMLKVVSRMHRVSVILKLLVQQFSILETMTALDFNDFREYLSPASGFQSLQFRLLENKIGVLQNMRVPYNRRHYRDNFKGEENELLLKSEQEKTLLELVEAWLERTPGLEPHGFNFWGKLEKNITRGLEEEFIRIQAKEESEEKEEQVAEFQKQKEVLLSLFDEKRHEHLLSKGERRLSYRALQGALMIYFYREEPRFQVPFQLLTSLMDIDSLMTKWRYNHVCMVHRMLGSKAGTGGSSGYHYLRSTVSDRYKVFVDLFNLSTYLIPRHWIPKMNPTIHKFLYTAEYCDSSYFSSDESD
Chain of Recombinant full-length human IDO1 (P14902 whole entry): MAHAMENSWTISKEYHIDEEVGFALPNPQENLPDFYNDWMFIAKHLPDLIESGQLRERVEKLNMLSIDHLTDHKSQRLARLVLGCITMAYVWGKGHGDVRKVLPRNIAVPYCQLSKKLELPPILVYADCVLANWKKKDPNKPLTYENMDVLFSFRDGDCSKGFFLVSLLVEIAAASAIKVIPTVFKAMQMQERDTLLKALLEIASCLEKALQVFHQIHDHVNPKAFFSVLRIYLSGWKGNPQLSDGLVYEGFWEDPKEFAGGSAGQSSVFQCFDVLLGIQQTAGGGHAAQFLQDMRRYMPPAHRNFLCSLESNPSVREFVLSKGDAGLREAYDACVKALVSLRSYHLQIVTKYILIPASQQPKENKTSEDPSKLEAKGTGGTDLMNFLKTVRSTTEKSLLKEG

Usually IC50 stands for the concentration needed to halve the response being measured. On to `CCC1CCC(CC(O)c2c(C3CC3)sc3cncn23)CC1` (racemic) [Example 142, rac-1-(2-Cyclopropyl-imidazo[5,1-b]thiazol-3-yl)-2-(4-ethyl-cyclohexyl)-ethanol], for which the half-maximal inhibitory concentration (IC50) was 85.8 nM in test [1] and 2000 nM in test [2]. With `Cc1cscc1-c1sc2cncn2c1C(O)C1CCCCC1` (racemic) [Example 128, rac-Cyclohexyl-[2-(4-methyl-thiophen-3-yl)-imidazo[5,1-b]thiazol-3-yl]-methanol], in test [2], the IC50 was 420 nM.

With `CCCc1sc2cncn2c1C(O)C1CCCCC1` (racemic) [Example 130, rac-Cyclohexyl-(2-propyl-imidazo[5,1-b]thiazol-3-yl)-methanol], the 50% inhibitory concentration (IC50) in test [1] was 49.5 nM; in test [2], 153 nM. For `Cc1sc2cncn2c1C(O)C1CCC(C)(C)C1` (stereo not drawn) [Example 141, (3,3-Dimethyl-cyclopentyl)-(2-methyl-imidazo[5,1-b]thiazol-3-yl)-methanol] the same measures were 81.2 nM and 412 nM. Regarding `CC1CCC(CC(O)c2c(C3CC3)sc3cncn23)CC1` (racemic) [Example 49, rac-1-(2-Cyclopropyl-imidazo[5,1-b]thiazol-3-yl)-2-(4-methyl-cyclohexyl)-ethanol], the values for the IC50 in test [1] and in test [2] were 50.3 nM and 638 nM, respectively. In the case of `CC1CC(C)(C)CC1C(O)c1c(C2CC2)sc2cncn12` (stereo not drawn) [Example 120, (2-Cyclopropyl-imidazo[5,1-b]thiazol-3-yl)-(2,4,4-trimethyl-cyclopentyl)-methanol], the IC50 in test [1] was determined as 172 nM; in test [2], 247 nM.

`CC(C)(C)C1CCC(CC(O)c2c(C3CC3)sc3cncn23)CC1` (racemic) [Example 74, rac-2-(4-tert-Butyl-cyclohexyl)-1-(2-cyclopropyl-imidazo[5,1-b]thiazol-3-yl)-ethanol]: the IC50 in test [1] was found to be 950 nM; in test [2] it was 4330 nM. For `C=Cc1sc2cncn2c1C(O)C1CCCCC1` (racemic) [Example 68, rac-Cyclohexyl-(2-vinyl-imidazo[5,1-b]thiazol-3-yl)-methanol], in that order: 14.4 nM and 29.3 nM. Consider `OC(Cc1ccccc1)c1c(C2CC2)sc2cncn12` (racemic) [Example 59, rac-1-(2-Cyclopropyl-imidazo[5,1-b]thiazol-3-yl)-2-phenyl-ethanol], for which the IC50 worked out at 249 nM in test [1] and 881 nM in test [2]. Regarding `OC(c1cccc(F)c1)c1c(C2CC2)sc2cncn12` (racemic) [Example 145, rac-(2-Cyclopropyl-imidazo[5,1-b]thiazol-3-yl)-(3-fluoro-phenyl)-methanol], the half-inhibitory concentration (IC50) in test [1] is 33.1 nM; in test [2], 449 nM. Turning to `OC(c1c(C2CC2)sc2cncn12)C1CCCC(C(F)(F)F)C1` (stereo not drawn) [Example 104, (2-Cyclopropyl-imidazo[5,1-b]thiazol-3-yl)-(3-trifluoromethyl-cyclohexyl)-methanol], the IC50 in test [1] was determined as 75.7 nM; in test [2], 1080 nM.

Take `OC(c1cccc(Cl)c1)c1c(C2CC2)sc2cncn12` (racemic) [Example 149, rac-(3-Chloro-phenyl)-(2-cyclopropyl-imidazo[5,1-b]thiazol-3-yl)-methanol]: the IC50 in test [1] was 65.1 nM; in test [2], 1820 nM. Consider `CC1(C)CC(C(O)c2c(C(F)(F)F)sc3cncn23)C1` (racemic) [Example 110, rac-(3,3-Dimethyl-cyclobutyl)-(2-trifluoromethyl-imidazo[5,1-b]thiazol-3-yl)-methanol], for which the IC50 in test [1] came to 9.81 nM; in test [2], 912 nM. Consider `OC(CC1CCCC1)c1c(C2CC2)sc2cncn12` (racemic) [Example 24, rac-2-Cyclopentyl-1-(2-cyclopropyl-imidazo[5,1-b]thiazol-3-yl)-ethanol], for which the 50% inhibitory concentration (IC50) in test [1] was 25.6 nM; in test [2], 394 nM. Take `CC1(C)CCC(C(O)c2c(C3CC3)sc3cncn23)C1` (stereo not drawn) [Example 47, (2-Cyclopropyl-imidazo[5,1-b]thiazol-3-yl)-(3,3-dimethyl-cyclopentyl)-methanol]: the values for the IC50 in test [1] and in test [2] were 18.8 nM and 287 nM, respectively. For `OC(c1c(Cc2ccccc2)sc2cncn12)C1CCCCC1` (racemic) [Example 154, rac-(2-Benzyl-imidazo[5,1-b]thiazol-3-yl)-cyclohexyl-methanol], the figures for the IC50 in test [1] and in test [2] were 7110 nM and 4270 nM, respectively. For `OC(c1ccc(Cl)cc1)c1c(C2CC2)sc2cncn12` (racemic) [Example 146, rac-(4-Chloro-phenyl)-(2-cyclopropyl-imidazo[5,1-b]thiazol-3-yl)-methanol], in that order: 63.9 nM and 1090 nM. For `OC(c1c(C(F)(F)F)sc2cncn12)C1CCCCC1` (racemic) [Example 63, rac-Cyclohexyl-(2-trifluoromethyl-imidazo[5,1-b]thiazol-3-yl)-methanol], in that order: 27 nM and 564 nM.

With `CCc1sc2cncn2c1C(O)c1cn(C2CCCC2)nn1` (racemic) [Example 198, rac-(1-Cyclopentyl-1H-[1,2,3]triazol-4-yl)-(2-ethyl-imidazo[5,1-b]thiazol-3-yl)-methanol], the values for the IC50 in test [1] and in test [2] were 116 nM and above 10200 nM, respectively. For `CCC(C1CCCCC1)C(O)c1c(C2CC2)sc2cncn12` (stereo not drawn) [Example 66, 2-Cyclohexyl-1-(2-cyclopropyl-imidazo[5,1-b]thiazol-3-yl)-butan-1-ol], in that order: 1570 nM and above 10200 nM. For `OC(c1c(C2CC2)sc2cncn12)C1CCCCCC1` (racemic) [Example 165, rac-Cycloheptyl-(2-cyclopropyl-imidazo[5,1-b]thiazol-3-yl)-methanol] the same measures were 14.2 nM and 382 nM. For `OC(CC1CCCCC1)c1c(-c2ccsc2)sc2cncn12` (racemic) [Example 95, rac-2-Cyclohexyl-1-(2-thiophen-3-yl-imidazo[5,1-b]thiazol-3-yl)-ethanol], in that order: 313 nM and 386 nM. For the compound `OC(CC1CCCC2CCCCC21)c1c(C2CC2)sc2cncn12` (stereo not drawn) [Example 89, 1-(2-Cyclopropyl-imidazo[5,1-b]thiazol-3-yl)-2-(decahydro-naphthalen-1-yl)-ethanol], the half-maximal inhibitory concentration (IC50) in test [1] is 528 nM; in test [2], 2130 nM. Regarding `OC(CC1CCC(c2ccccc2)CC1)c1c(C2CC2)sc2cncn12` (racemic) [Example 37, rac-1-(2-Cyclopropyl-imidazo[5,1-b]thiazol-3-yl)-2-(4-phenyl-cyclohexyl)-ethanol], the 50% inhibitory concentration (IC50) in test [1] was determined as 353 nM; in test [2], 2460 nM.

Take `Cc1cc(-c2sc3cncn3c2C(O)C2CCCCC2)cs1` (racemic) [Example 153, rac-Cyclohexyl-[2-(5-methyl-thiophen-3-yl)-imidazo[5,1-b]thiazol-3-yl]-methanol]: the figures for the IC50 in test [1] and in test [2] were 766 nM and 854 nM, respectively. For the compound `Cc1sc2cncn2c1C(O)c1ccccc1` (racemic) [Example 162, rac-(2-Methyl-imidazo[5,1-b]thiazol-3-yl)-phenyl-methanol], the results for the IC50 in test [1] and in test [2] were 561 nM and 1000 nM, respectively.
